Data reported in ChEMBL document CHEMBL1137843, “N-4-Substituted-benzyl-N'-tert-butylbenzyl thioureas as vanilloid receptor ligands: investigation on the role of methanesulfonamido group in antagonistic activity” (Bioorg Med Chem Lett, 2004).

How the values were obtained:
Type in all cases: functional
Vanilloid receptor [1] = target: T1, Vanilloid receptor (Rattus norvegicus, UniProt Q9ERZ8+Q9WUD2+O35433); assay: In vitro antagonist activity at the vanilloid receptor in rat DRG neurons.
Vanilloid receptor [2] = target: T1, Vanilloid receptor; assay: In vitro antagonist activity at vanilloid receptor in rat dorsal root ganglia (partial at 30 uM)
Vanilloid receptor [3] = target: T1, Vanilloid receptor; assay: In vitro agonist activity, increased [Ca2+] influx, at vanilloid receptor of rat dorsal root ganglia
Vanilloid receptor [4] = target: T1, Vanilloid receptor; assay: In vitro agonist activity, increased [Ca2+] influx, at vanilloid receptor of rat dorsal root ganglia (partial at 30 uM)

SMILES | IC50 (Vanilloid receptor [1]) [µM] | other results
CC(C)(C)c1ccc(C/N=C(\S)NCc2ccc(NS(=O)(=O)C(F)(F)F)cc2)cc1 | 12.4 | –
CN(c1ccc(C/N=C(\S)NCc2ccc(C(C)(C)C)cc2)cc1)S(C)(=O)=O | 2.5 | –
CC(C)(C)c1ccc(C/N=C(\S)NCc2ccc(C(F)(F)F)cc2)cc1 | 12.4 | –
CC(C)(C)c1ccc(C/N=C(\S)NCc2ccc([N+](=O)[O-])cc2)cc1 | – | IC50 (Vanilloid receptor [2]): > 30 µM
COc1cc(C/N=C(\S)NCc2ccc(C(C)(C)C)cc2)ccc1OS(C)(=O)=O | 0.3 | –
CCS(=O)(=O)Nc1ccc(C/N=C(\S)NCc2ccc(C(C)(C)C)cc2)cc1 | 1.3 | –
CC(C)(C)c1ccc(C/N=C(\S)NCc2ccc(N)cc2)cc1 | – | EC50 (Vanilloid receptor [3]): 7 µM
CCCCS(=O)(=O)Nc1ccc(C/N=C(\S)NCc2ccc(C(C)(C)C)cc2)cc1 | 4.1 | –
CC(C)(C)c1ccc(C/N=C(\S)NCc2ccc(NS(N)(=O)=O)cc2)cc1 | 1 | –
CC(C)(C)c1ccc(C/N=C(\S)NCc2ccc(OS(C)(=O)=O)cc2)cc1 | 9.3 | –
CC(C)(C)c1ccc(C/N=C(\S)NCc2ccc(NC(=N)S)cc2)cc1 | – | IC50 (Vanilloid receptor [2]): > 30 µM; EC50 (Vanilloid receptor [4]): > 30 µM
CC(C)(C)c1ccc(C/N=C(\S)NCc2ccc(NS(=O)(=O)c3cccs3)cc2)cc1 | – | IC50 (Vanilloid receptor [2]): > 30 µM
CNS(=O)(=O)Nc1ccc(C/N=C(\S)NCc2ccc(C(C)(C)C)cc2)cc1 | 2.5 | –
CC(C)(C)c1ccc(C/N=C(\S)NCc2ccc(NS(=O)(=O)CC(F)(F)F)cc2)cc1 | 11.7 | –
CC(C)(C)c1ccc(C/N=C(\S)NCc2ccc(O)cc2)cc1 | – | EC50 (Vanilloid receptor [4]): > 30 µM
CC(C)(C)c1ccc(C/N=C(\S)NCc2ccc(NS(=O)(=O)Cc3ccccc3)cc2)cc1 | 1.5 | –
CN(C)S(=O)(=O)Nc1ccc(C/N=C(\S)NCc2ccc(C(C)(C)C)cc2)cc1 | 14.6 | –
CC(C)S(=O)(=O)Nc1ccc(C/N=C(\S)NCc2ccc(C(C)(C)C)cc2)cc1 | 3.8 | –
CCCS(=O)(=O)Nc1ccc(C/N=C(\S)NCc2ccc(C(C)(C)C)cc2)cc1 | 4.5 | –
Oc1cc2c(cc1O)CN(C(=S)NCCc1ccc(Cl)cc1)CCC2 [CAPSAZEPINE] | 0.65 | –
